Experiment: in vitro absorption of foam/gas in fresh human venous blood
Assay type: in vitro ADME
Conditions: 0.5 ml aliquot in 20 ml stirred blood
Protocol: In vitro experiments were conducted to determine the absorption of foam made with different gases in fresh human venous blood.
A 20 ml polypropylene syringe barrel was prepared by puncturing its side wall with a relatively large hypodermic needle to make a hole approximately 1 mm in diameter. This hole was then covered by securing a piece of clear flexible vinyl sheet over it with clear adhesive tape. A small magnetic stirrer element was introduced into the syringe barrel and the plunger then replaced. 20 ml of human venous blood was then with withdrawn in the usual manner from a human subject using the specially prepared syringe fitted with a hypodermic needle.
The hypodermic needle was removed and the syringe then placed on a magnetic stirrer unit so that the magnetic element in the syringe thoroughly agitated the blood. […]
The needle of the 0.5 ml syringe was then introduced through the vinyl sheet on the side wall of the 20 ml syringe. […] It was determined that a distance of 45 intervals on this scale corresponded to an internal volume of in the manometer tubing of approximately 0.5 ml. […]
In this experiment, the air foam test was only observed for a few minutes after tF. However, further experiments have been conducted by the inventors, the results of which are not formally recorded here, involving foam with a percentage of nitrogen. […]

Absorbed volume at tF: 0.46 mL | tF (time until blood column stopped moving): 140 s
Compound: O=O [Oxygen gas, oxygen]
